From patent US5484934A, “Isothiazole derivatives, a process for production thereof and uses thereof” (Nihon Nohyaku Co., Ltd., priority 1992, dated 1996)

Legend:
[1] = tested on: Serpula lacrymans; assay: Inhibition of hypha growth on malt extract agar, Serpula lacrymans; conditions: read-out: Controlling effect (growth inhibition rate) SEL
Protocol: (§1) Each preparation to be tested was added to malt extract agar medium to adjust the concentration to 50 ppm, and the resulting mixture was dispensed into Petri dishes. As an inoculum, a prepared mycerial tuft of each test fungus was punched out together with agar by means of a 4-mm-diameter cork borer and inoculated on medium. The incubation temperature was adjusted to 28±2° .C (or 18±2° C. in the case of Selupula lacrymas).
(§2) The diameter of mycerial tuft was measured 2 to 10 days after the inoculation, and the inhibition rate of hypha growth (the following equation) was measured.

[2] = tested on: Aspergillus niger; assay: Inhibition of hypha growth on malt extract agar, Aspergillus niger; conditions: read-out: Controlling effect (growth inhibition rate) ASN
Protocol: as §1, §2
(§3) The controlling effect was evaluated according to the following criterion.

[3] = tested on: Rhizopus nigricans; assay: Inhibition of hypha growth on malt extract agar, Rhizopus nigricans; conditions: Rhizopus stolonifer, read-out: Controlling effect (growth inhibition rate) RHS
[4] = tested on: Tyromyces palustris; assay: Inhibition of hypha growth on malt extract agar, Tyromyces palustris; conditions: read-out: Controlling effect (growth inhibition rate) TYP
Protocol: as §1, §2

[5] = tested on: Cladosporium cladosporioides; assay: Inhibition of hypha growth on malt extract agar, Cladosporium cladosporioides; conditions: read-out: Controlling effect (growth inhibition rate) CLC
Protocol: as §1, §2

[6] = tested on: Chaetomium globosum; assay: Inhibition of hypha growth on malt extract agar, Chaetomium globosum; conditions: read-out: Controlling effect (growth inhibition rate) CHG
[7] = tested on: Pseudoperonospora cubensis; assay: Controlling effect on cucumber Downy mildew; assay type: in vivo; conditions: 168 h, 200 ppm spray, inoculation after 24 hours, read-out: Controlling effect Pc (cucumber downy mildew)
[8] = tested on: Pyricularia oryzae; assay: whole plant or invertebrate; assay type: in vivo; conditions: 168 h, read-out: Controlling effect Ps (rice blast)
[9] = tested on: Fusarium oxysporum; assay: Inhibition of hypha growth on malt extract agar, Fusarium oxysporum; conditions: read-out: Controlling effect (growth inhibition rate) FUO
Protocol: as §1, §2, §3

[10] = tested on: Coriolus versicolor; assay: Inhibition of hypha growth on malt extract agar, Coriolus versicolor; assay type: cell-based; conditions: Trametes versicolor, 28±2° C., 2 to 10 days, read-out: Controlling effect (growth inhibition rate) COV
[11] = tested on: Trichoderma viride; assay: Inhibition of hypha growth on malt extract agar, Trichoderma viride; conditions: read-out: Controlling effect (growth inhibition rate) TRV
Protocol: as §1, §2

[12] = tested on: Phytophthora infestants; assay: whole plant or invertebrate; assay type: in vivo; conditions: 168 h; read-out: Controlling effect Pi (tomato late blight)
[13] = tested on: Botrytis cinerea; assay: Controlling effect (curing effect) on cucumber gray mold; assay type: in vivo; conditions: 72 h, immersion of inoculated cotyledons, 15° C., read-out: Controlling effect Bc (cucumber gray mold)
Protocol: Controlling effect (curing effect) on cucumber gray mold The cotyledons of potted cucumber plants at the 1 leaf stage were cut off and each of them was inoculated with a mycelial tuft of gray mold fungus (Botrytis cinerea) cultured on PSA medium. After having been placed in a moist chamber at 15° C. for 24 hours, the cotyledons were immersed in a 200 ppm liquid chemical containing each compound of the present invention as active ingredient. […]

[14] = tested on: Alternaria mali; assay: Inhibition of hypha growth on malt extract agar, Alternaria mali; conditions: read-out: Controlling effect (growth inhibition rate) ALM
Protocol: as §1, §2, §3

Row | Structure (SMILES) | inhibition at 50 ppm [1] [%] | inhibition at 50 ppm [2] [%] | inhibition at 50 ppm [3] [%] | inhibition at 50 ppm [4] [%] | inhibition at 50 ppm [5] [%] | inhibition at 50 ppm [6] [%] | pest or weed control at 200 ppm [7] [%] | pest or weed control at 200 ppm [8] [%] | inhibition at 50 ppm [9] [%] | inhibition at 50 ppm [10] [%] | inhibition at 50 ppm [11] [%] | pest or weed control at 200 ppm [12] [%] | pest or weed control at 200 ppm [13] [%] | inhibition at 50 ppm [14] [%]
1 | COc1nsc(S(C)(=O)=O)c1C#N [Compound 20, 3-methoxy-4-cyano-5-methylsulfonylisothiazole] | 100 | 100 | 100 | 100 | 100 | 100 | 95 to 100 | 95 to 100 | 100 | 100 | 100 | 95 to 100 | 60 to 79 | 100
2 | CC(C)Oc1nsc(S(=O)(=O)C(F)F)c1C#N [Compound 144] | 100 | 100 | 100 | 100 | 100 | 100 | 95 to 100 | 95 to 100 | 100 | 100 | 100 | 95 to 100 | 95 to 100 | 100
3 | CC(C)Oc1nsc(S(C)(=O)=O)c1C#N [Compound 50] | 100 | 100 | 100 | 100 | 100 | 100 | 95 to 100 | 80 to 94 | 100 | 100 | 100 | 80 to 94 | 0 to 59 | 100
4 | CS(=O)(=O)c1snc(OC(F)F)c1C#N [Compound 24, 3-difluoromethoxy-4-cyano-5-methylsulfonylisothiazole] | 100 | 100 | 85 to 99 | 100 | 100 | 55 to 84 | 95 to 100 | 95 to 100 | 85 to 99 | 100 | 100 | 95 to 100 | 0 to 59 | 100
